Values joined by “and” are separate entries in the source; they are usually repeats but may differ in a detail not shown here. Equal values may be shown once.
Test system: human telomeric DNA G-quadruplex
Experiment: ESI-TOF-MS G-quadruplex binding assay
Conditions: for Relative binding affinity (RBA): negative ESI-TOF-MS, 10 uM human telomeric DNA (27 nt) and 10 uM compound in 10 mM ammonium acetate, RBA = sum of complexes peaks areas / sum of G-quadruplex DNA peaks areas, means ± SD
Procedure: UV data were recorded using a Beckman DU 800 UV/vis spectrophotometer. HRESIMS were recorded on an Agilent 6230 ESI-TOF mass spectrometer. NMR spectra were obtained from Bruker Ascend™ 600 spectrometer equipped with a cyro platform. Silica gel (Devisil®, 40˜63 micron) was used for column chromatography. Silica gel plates (Merck, DC Kieselgel 60 F254) was used for TLC analysis. High-performance liquid chromatography (HPLC) was carried out on Agilent 1100, Agilent 1200 and Waters 1525-2489 apparatus with a semi-preparative column (Waters, XBridge® Prep C18, 5 μm, 250×10 mm). 27 nt human telomeric DNA (M monoisotopic=8492.4 Da, Invitrogen) was used for G-quadruplex binding assay, which was the same as the one applied in Bai, L. P. et al. PloS One 2013, 8, e53962. The G-quadruplex binding analysis was conducted on a Bruker maXis impact mass spectrometer equipped with a kdScientific syringe pump (Holliston, Mass., USA). Solvents for HPLC separation analysis were HPLC grade.
Electrospray ionization time-of-flight mass spectrometry (ESI-TOF-MS) experiments were conducted on a Bruker maXis impact mass spectrometer in the negative mode (Bai, L. P., Plos One, 2013, 8, e53962; Bai, L. P., Sci. Rep. 2014, 4, 6767). The ESI source parameters were set as follows: end plate offset voltage of 500 V, capillary voltage of 3000 V, nebulizer of 1.0 bar, dry gas flow of 4.0 L/min at 160° C. The flow rate of sample injection into the mass spectrometer was set at 3 uL/min by using a kdScientific syringe pump. Each mass spectrum was obtained by an average of at least 30 scans. The mixture of a final concentration of 10 uM nucleic acid, i.e. human telomeric DNA (27 nt) (M=8496.6 Da), and 10 uM phenanthroindolizidine alkaloid in 10 mM ammonium acetate was directly injected into mass spectrometer. Data were obtained from three parallel samples of nucleic acid-drug complex solution, and then analyzed with the software of Compass DataAnalysis.
ESI-TOF-MS was utilized to investigate the non-covalent binding capacity of compounds 1 to 7, i.e. compounds of Formulas (2) to (8) with human telomeric DNA G-quadruplex formed by the human telomeric sequence. The human telomeric sequence is known and disclosed in Bai, L. P. et al. PloS One 2013, 8, e53962. 13aS-tylophorine compound 8, i.e. compound of Formula (9):
[drawing 17] and reference G-quadruplex binder sanguinarine were used as control (Bai, L. P., Anal. Bioanal. Chem., 2008, 392, 709; Bai, L. P., Bioorg. Med. Chem., 2006, 14, 5439). […] The relative binding affinities (RBA) of tested compounds were calculated to evaluate their binding capacities to human telomeric DNA G-quadruplex using the equation: RBA=Σcomplexes peaks areas/ΣG-quadruplex DNA peaks areas

| Structure (SMILES) | Relative binding affinity (RBA) | potency in RBA value, times that of 3-demethyl analogue compound 2 (ratio of RBA values) | RBA value, times higher than that of 2-methoxylated/hydroxylated analogues compound 5 or 1 (ratio of RBA values) |
| --- | --- | --- | --- |
| COc1cc2c(cc1O)c1cc(OC)c(OC)cc1c1cc3[n+](cc21)CCC3 [compound 4, 6-demethyldehydrotylophorine] | 0.238 and 0.238 ± 0.010 |  |  |
| COc1cc2c(cc1O)c1cc(OC)c(O)cc1c1cc3[n+](cc21)CCC3 [compound 3, 2-hydroxylanhydrodehydrotylophorinidine] | 0.189 and 0.189 ± 0.002 |  |  |
| COc1ccc2c(c1)c1cc(O)c(OC)cc1c1c[n+]3c(cc21)CCC3 [compound 6, an hydrodehydrotylophorinidine] | 0.437 and 0.437 ± 0.019 | at least 3 times |  |
| COc1cc2c3cc(OC)c(OC)cc3c3c[n+]4c(cc3c2cc1OC)CCC4 [compound 5, dehydrotylophorine] | 0.290 and 0.290 ± 0.017 |  |  |
| COc1cc2c(cc1O)c1cc3[n+](cc1c1cc(OC)c(OC)cc21)CCC3 [compound 1, 2-demethyldehydrotylophorine] | 0.265 and 0.265 ± 0.008 |  |  |
| COc1cc2c3c(c4cc(OC)c(OC)cc4c2cc1OC)CN1CCC[C@H]1C3 [compound 8, 13aS-tylophorine, reference compound] | 0.168 and 0.168 ± 0.007 |  |  |
| COc1cc2c(cc1O)c1cc(O)ccc1c1cc3[n+](cc21)CCC3 [compound 2, 3-demethylanhydrodehydrotylophorinidine] | 0.122 and 0.122 ± 0.007 |  |  |
| COc1ccc2c(c1)c1cc(OC)c(OC)cc1c1c[n+]3c(cc21)CCC3 [compound 7, tylophoridicine D] | 0.619 and 0.619 ± 0.016 |  | at least 2 times |
